Test [1] concerns N1E-115. Kind of test: Evaluated for the cyclic [3H]GMP formation in murine N1E-115 neuroblastoma cells in absence of neurotensin at conc. of 32 uM; NS - No significant activity. The settings on record: Mus musculus. Format: functional, cell-based.
Test [2] deals with N1E-115. Kind of test: Evaluated for its antagonistic activity against the NT-stimulated cyclic [3H]GMP formation in murine N1E-115 neuroblastoma cells. Format: functional, cell-based, Mus musculus.
Test [3] concerns the target Neurotensin receptor type 1 (Rattus norvegicus, UniProt P20789). In words: Inhibitory concentration required for the displacement of [3H]NT from neurotensin receptor in rat. For orientation: Displacement assays read how much labelled ligand stays bound in the presence of the test substance.
In test [4] the target is Neurotensin receptor (Homo sapiens) (UniProt O95665+P30989). In words: Inhibitory concentration required for the displacement of [3H]-NT from neurotensin receptor on human frontal cortex at conc. of 100 uM; NA - No activity. The test is classed as tissue-based.
Neurotensin receptor (Homo sapiens), sequence (O95665 whole entry, looked up): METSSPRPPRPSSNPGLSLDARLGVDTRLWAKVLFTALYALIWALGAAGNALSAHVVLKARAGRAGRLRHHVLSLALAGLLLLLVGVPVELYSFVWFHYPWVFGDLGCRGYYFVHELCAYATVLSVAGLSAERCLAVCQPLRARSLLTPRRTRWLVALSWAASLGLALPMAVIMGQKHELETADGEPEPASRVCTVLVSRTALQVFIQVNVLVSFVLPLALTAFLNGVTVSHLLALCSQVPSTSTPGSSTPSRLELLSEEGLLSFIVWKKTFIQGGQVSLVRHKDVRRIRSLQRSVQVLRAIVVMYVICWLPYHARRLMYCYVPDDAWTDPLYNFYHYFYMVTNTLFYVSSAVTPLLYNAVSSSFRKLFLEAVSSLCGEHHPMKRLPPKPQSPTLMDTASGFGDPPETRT
Neurotensin receptor (Homo sapiens), sequence (P30989 whole entry, looked up): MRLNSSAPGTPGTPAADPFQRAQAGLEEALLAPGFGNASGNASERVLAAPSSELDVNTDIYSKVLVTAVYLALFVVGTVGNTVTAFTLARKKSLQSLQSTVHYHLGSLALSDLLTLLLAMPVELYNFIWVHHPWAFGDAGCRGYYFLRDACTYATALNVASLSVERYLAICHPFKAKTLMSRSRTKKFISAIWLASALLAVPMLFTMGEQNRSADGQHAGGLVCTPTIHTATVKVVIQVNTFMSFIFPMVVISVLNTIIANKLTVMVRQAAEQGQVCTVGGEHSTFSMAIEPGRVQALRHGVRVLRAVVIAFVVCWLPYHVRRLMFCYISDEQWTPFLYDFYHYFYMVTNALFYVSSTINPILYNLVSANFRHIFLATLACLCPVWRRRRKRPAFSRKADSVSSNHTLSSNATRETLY
Test [5] has as its target Neurotensin receptor type 1 (Mus musculus, UniProt O88319). In words: Inhibitory concentration required for the displacement of [3H]NT from neurotensin receptor in mouse; value ranges from 4-6 uM.
Test [6] concerns Rattus norvegicus. In words: Compound was tested for the inhibition of NT-induced hyperlocomotion at a dose of 80 mg/kg (ip); SI - Significant inhibition. Format: functional, organism-based. Further details: dose 80 mg/kg.
The test system of test [7] is Rattus norvegicus. Kind of test: Compound was tested for the inhibition of NT-induced hyperlocomotion at a dose of 120 mg/kg (ip); SI - Significant inhibition. The test is classed as functional, organism-based. Further details: dose 120 mg/kg.
In test [8] the test system is Rattus norvegicus. In words: Compound was tested for the inhibition of NT-induced hyperlocomotion at a dose of 40 mg/kg (ip); NS - No significant inhibition. Format: functional, organism-based. Further details: dose 40 mg/kg.
Test [9] is described as follows: Compound was evaluated for its ability to displace [3H]NT from the neurotensin receptor of bovine brain.

Activity calls are given as the source filed them. The calls are words filed in the database; no cut-off is given here.

Neurotensin receptor type 1 (Rattus norvegicus, UniProt P20789), sequence (P20789 whole entry): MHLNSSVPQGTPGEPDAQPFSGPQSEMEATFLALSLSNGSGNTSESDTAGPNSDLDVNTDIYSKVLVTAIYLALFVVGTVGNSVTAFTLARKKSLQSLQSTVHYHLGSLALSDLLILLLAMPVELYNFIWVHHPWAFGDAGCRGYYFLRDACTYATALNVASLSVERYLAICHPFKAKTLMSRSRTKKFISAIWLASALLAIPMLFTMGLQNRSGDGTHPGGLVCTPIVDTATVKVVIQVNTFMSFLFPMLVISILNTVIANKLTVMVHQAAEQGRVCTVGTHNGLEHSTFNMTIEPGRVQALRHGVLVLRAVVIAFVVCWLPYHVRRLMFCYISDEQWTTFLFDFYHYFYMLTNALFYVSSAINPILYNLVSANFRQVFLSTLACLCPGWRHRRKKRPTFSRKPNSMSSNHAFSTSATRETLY
Neurotensin receptor type 1 (Mus musculus, UniProt O88319), sequence (O88319 whole entry): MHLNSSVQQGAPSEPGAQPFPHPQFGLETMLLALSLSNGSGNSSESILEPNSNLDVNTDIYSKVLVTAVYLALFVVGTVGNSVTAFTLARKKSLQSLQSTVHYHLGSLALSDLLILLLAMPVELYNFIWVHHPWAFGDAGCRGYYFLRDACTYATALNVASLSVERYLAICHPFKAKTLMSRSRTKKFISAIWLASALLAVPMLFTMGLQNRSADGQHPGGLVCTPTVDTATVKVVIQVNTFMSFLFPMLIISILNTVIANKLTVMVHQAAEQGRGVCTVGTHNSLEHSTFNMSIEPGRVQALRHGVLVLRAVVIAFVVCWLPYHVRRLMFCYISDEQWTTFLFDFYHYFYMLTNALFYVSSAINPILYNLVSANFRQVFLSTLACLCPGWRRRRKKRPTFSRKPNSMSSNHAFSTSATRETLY

Consider `Cc1ccc(S(=O)(=O)NCCNC2(c3ccccc3)OC(=O)c3ccccc32)cc1` (centres undefined), for which, in the test on N1E-115 [1], the outcome was inactive. Further, affinity in the test on N1E-115 [2] was put at a Ki of 4.4 µM. Also, the IC50 – broadly, the concentration that inhibits the measured activity by half – in test [3] stood at 49 µM; in [5], 6 µM; in test [9], 5.5 µM. The inhibition result (in [4]; with Rattus norvegicus [8]) was “inactive” throughout. The inhibition result with Rattus norvegicus [6] and with Rattus norvegicus [7] was “Active” in each case.
